{"source": "patent US7691816B2", "about": "“Pharmaceutical compositions” (Renovo Ltd., priority 2005, dated 2010)", "test": "Localised pain and erythema associated with intradermal injection of formulations", "type": "in vivo, human", "experimental": "A study was conducted to evaluate localised pain and erythema associated with intradermal injection of medicaments manufactured in accordance with the invention and the pain and erythema associated with control injections of prior art compositions.\nExperimental injectable solutions were prepared as described above.\nBriefly, a volume of 100 μL of each formulation described above was injected intradermally into the inner aspect of the upper arms of a volunteer. In addition to the DS11 control described above, a solution of the known local anaesthetic lignocaine was also used as a further control. The pain on injection and erythema were categorised by the volunteer and a clinician.\nBoth the volunteer and the clinician undertook these evaluations. The extent of pain or erythema associated with the different formulations used was rated based upon the following categories (listed in ascending severity): […]", "key": {"[1]": {"settings": "Volunteer 1, 100 μL intradermal, inner aspect of upper arm"}, "[2]": {"settings": "Volunteer 2, 100 μL intradermal, inner aspect of upper arm"}}, "data": [{"compound": "CCN(CC)CC(=O)Nc1c(C)cccc1C", "note": "[Lignocaine, lignocaine]", "values": [{"measurement": "Erythema", "setting": "Table 4, summary of Table 3", "value": "Marked"}, {"measurement": "Pain", "setting": "Table 4, summary of Table 3", "value": "Marked"}, {"measurement": "Erythema", "setting": "[1]", "value": "Marked"}, {"measurement": "Pain", "setting": "[1]", "value": "Marked"}, {"measurement": "Erythema", "setting": "[2]", "value": "Marked"}, {"measurement": "Pain", "setting": "[2]", "value": "Marked"}]}, {"compound": "Glucose", "values": [{"measurement": "Pain", "setting": "in vivo", "value": "None"}]}]}
